Reference: PubChem BioAssay AID248 (DTP/NCI, 2004)
Values joined by “and” are separate entries in the source; they are usually repeats but may differ in a detail not shown here. Equal entries are not always repeated. Inconclusive results and toxic doses are left out. Cut-off read from the data, not from the text of the source: active = T/C of 150% or more; inactive = T/C below 125%.

Test system: L1210 leukemia ip in BDF1 mice, survival T/C
Assay: NCI In Vivo Anticancer Drug Screen. Data for tumor model L1210 Leukemia (intraperitoneal) in B6D2F1 (BDF1) mice
Conditions: higher = longer survival
Summary of the method: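 Transplanted-tumor mice were given test agent; controls received vehicle only. Survival readings from the two groups were divided (treated over control).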

Measured: T/C

S=c1nc[nH]c2nc[nH]c12
inactive: endpoint: mean survival time, dose: 0.15 mg/kg/injection, schedule: Q01DX001 (ip), vehicle: other 102 % of control | endpoint: mean survival time, dose: 0.15 mg/kg/injection, schedule: Q01DX Z (ip), vehicle: other 98 % of control | endpoint: mean survival time, dose: 0.3 mg/kg/injection, schedule: Q01DX001 (ip), vehicle: other 101 % of control | endpoint: mean survival time, dose: 0.3 mg/kg/injection, schedule: Q01DX Z (ip), vehicle: other 101 % of control | endpoint: mean survival time, dose: 0.6 mg/kg/injection, schedule: Q01DX001 (ip), vehicle: other 93 % of control and 101 % of control | endpoint: mean survival time, dose: 0.6 mg/kg/injection, schedule: Q01DX Z (ip), vehicle: other 96 % of control | endpoint: mean survival time, dose: 0.63 mg/kg/injection, schedule: Q01DX015 (ip), vehicle: alkali diluted with saline 95 % of control | endpoint: mean survival time, dose: 1.1 mg/kg/injection, schedule: Q01DX001 (ip), vehicle: other 104 % of control | endpoint: mean survival time, dose: 1.25 mg/kg/injection, schedule: Q01DX015 (ip), vehicle: alkali diluted with saline 95 % of control | endpoint: mean survival time, dose: 1.3 mg/kg/injection, schedule: Q01DX001 (ip), vehicle: other 101 % of control | endpoint: mean survival time, dose: 1.3 mg/kg/injection, schedule: Q01DX Z (ip), vehicle: other 102 % of control | endpoint: mean survival time, dose: 1.9 mg/kg/injection, schedule: Q01DX009 (ip), vehicle: alkali diluted with saline 107 % of control | endpoint: mean survival time, dose: 2.0 mg/kg/injection, schedule: Q01DX001 (ip), vehicle: carboxymethylcellulose (CMC) 107 % of control | endpoint: mean survival time, dose: 2.2 mg/kg/injection, schedule: Q01DX001 (ip), vehicle: other 104 % of control | endpoint: mean survival time, dose: 2.5 mg/kg/injection, schedule: Q01DX015 (ip), vehicle: alkali diluted with saline 100 % of control | endpoint: mean survival time, dose: 2.5 mg/kg/injection, schedule: Q01DX Z (ip), vehicle: other 107 % of control | endpoint: mean survival time, dose: 3.8 mg/kg/injection, schedule: Q01DX009 (ip), vehicle: alkali diluted with saline 105 % of control | endpoint: mean survival time, dose: 3.8 mg/kg/injection, schedule: Q03DX Z (ip), vehicle: other 108 % of control | endpoint: mean survival time, dose: 4.0 mg/kg/injection, schedule: Q01DX001 (ip), vehicle: carboxymethylcellulose (CMC) 98 % of control | endpoint: mean survival time, dose: 4.4 mg/kg/injection, schedule: Q01DX001 (ip), vehicle: other 102 % of control | endpoint: mean survival time, dose: 5.0 mg/kg/injection, schedule: Q01DX015 (ip), vehicle: alkali diluted with saline 103 % of control | endpoint: mean survival time, dose: 5.0 mg/kg/injection, schedule: Q01DX Z (ip), vehicle: alkali diluted with saline 104 % of control and 110 % of control | endpoint: mean survival time, dose: 7.5 mg/kg/injection, schedule: Q01DX009 (ip), vehicle: alkali diluted with saline 101 % of control | endpoint: mean survival time, dose: 7.5 mg/kg/injection, schedule: Q01DX009 (ip), vehicle: saline 103 % of control | endpoint: mean survival time, dose: 7.5 mg/kg/injection, schedule: Q03DX Z (ip), vehicle: other 111 % of control | endpoint: mean survival time, dose: 8.0 mg/kg/injection, schedule: Q01DX001 (ip), vehicle: carboxymethylcellulose (CMC) 95 % of control | endpoint: mean survival time, dose: 8.0 mg/kg/injection, schedule: Q04DX002 (ip), vehicle: alkali diluted with saline 105 % of control and 106 % of control | endpoint: mean survival time, dose: 10.0 mg/kg/injection, schedule: Q01DX006 (iv), vehicle: other 103 % of control | endpoint: mean survival time, dose: 10.0 mg/kg/injection, schedule: Q01DX009 (oral), vehicle: saline with Tween-80 102 % of control and 107 % of control | endpoint: mean survival time, dose: 10.0 mg/kg/injection, schedule: Q01DX015 (ip), vehicle: alkali diluted with saline 101 % of control | endpoint: mean survival time, dose: 10.0 mg/kg/injection, schedule: Q01DX Z (ip), vehicle: alkali diluted with saline 110 % of control | endpoint: mean survival time, dose: 10.0 mg/kg/injection, schedule: Q01DX Z (sc), vehicle: other 111 % of control | endpoint: mean survival time, dose: 12.0 mg/kg/injection, schedule: Q04DX003 (ip), vehicle: saline 105 % of control | endpoint: mean survival time, dose: 12.5 mg/kg/injection, schedule: Q01DX009 (ip), vehicle: saline 112 % of control | endpoint: mean survival time, dose: 12.5 mg/kg/injection, schedule: Q01DX017 (ip), vehicle: other 104 % of control | endpoint: mean survival time, dose: 12.5 mg/kg/injection, schedule: Q01DX Z (ip), vehicle: other 105 % of control | endpoint: mean survival time, dose: 15.0 mg/kg/injection, schedule: Q01DX009 (ip), vehicle: saline 112 % of control | endpoint: mean survival time, dose: 16.0 mg/kg/injection, schedule: Q01DX001 (ip), vehicle: carboxymethylcellulose (CMC) 101 % of control | endpoint: mean survival time, dose: 16.0 mg/kg/injection, schedule: Q04DX002 (ip), vehicle: alkali diluted with saline 100 % of control and 102 % of control | endpoint: mean survival time, dose: 18.0 mg/kg/injection, schedule: Q01DX015 (ip), vehicle: alkali diluted with saline 104 % of control | endpoint: mean survival time, dose: 20.0 mg/kg/injection, schedule: Q01DX005 (ip), vehicle: alkali diluted with water 108 % of control and 111 % of control | endpoint: mean survival time, dose: 20.0 mg/kg/injection, schedule: Q01DX006 (iv), vehicle: other 108 % of control | endpoint: mean survival time, dose: 20.0 mg/kg/injection, schedule: Q01DX009 (oral), vehicle: saline with Tween-80 98 % of control and 105 % of control | endpoint: mean survival time, dose: 20.0 mg/kg/injection, schedule: Q01DX Z (ip), vehicle: alkali diluted with saline 110 % of control | endpoint: mean survival time, dose: 20.0 mg/kg/injection, schedule: Q02DX008 (ip), vehicle: alkali diluted with saline 105 % of control | endpoint: mean survival time, dose: 27.0 mg/kg/injection, schedule: Q01DX015 (ip), vehicle: alkali diluted with saline 106 % of control | endpoint: mean survival time, dose: 30.0 mg/kg/injection, schedule: Q04DX003 (ip), vehicle: saline 109 % of control | endpoint: mean survival time, dose: 32.0 mg/kg/injection, schedule: Q01DX001 (ip), vehicle: carboxymethylcellulose (CMC) 101 % of control | endpoint: mean survival time, dose: 32.0 mg/kg/injection, schedule: Q04DX002 (ip), vehicle: alkali diluted with saline 102 % of control and 103 % of control | endpoint: mean survival time, dose: 35.0 mg/kg/injection, schedule: Q01DX011 (ip), vehicle: alkali diluted with saline 108 % of control | endpoint: mean survival time, dose: 40.0 mg/kg/injection, schedule: Q01DX001 (ip), vehicle: alkali diluted with saline 104 % of control | endpoint: mean survival time, dose: 40.0 mg/kg/injection, schedule: Q01DX006 (iv), vehicle: other 111 % of control | endpoint: mean survival time, dose: 40.0 mg/kg/injection, schedule: Q#A X Z (ip), vehicle: other 94 % of control | endpoint: mean survival time, dose: 45.0 mg/kg/injection, schedule: Q06HX012 (ip), vehicle: alkali diluted with saline 96 % of control | endpoint: mean survival time, dose: 53.0 mg/kg/injection, schedule: Q01DX011 (ip), vehicle: alkali diluted with saline 109 % of control | endpoint: mean survival time, dose: 60.0 mg/kg/injection, schedule: Q01DX001 (ip), vehicle: alkali diluted with saline 110 % of control and 111 % of control | endpoint: mean survival time, dose: 60.0 mg/kg/injection, schedule: Q## X015 (ip), vehicle: other 107 % of control | endpoint: mean survival time, dose: 64.0 mg/kg/injection, schedule: Q01DX001 (ip), vehicle: carboxymethylcellulose (CMC) 98 % of control | endpoint: mean survival time, dose: 80.0 mg/kg/injection, schedule: Q01DX Z (ip), vehicle: carboxymethylcellulose (CMC) 105 % of control | endpoint: mean survival time, dose: 90.0 mg/kg/injection, schedule: Q01DX009 (ip), vehicle: carboxymethylcellulose (CMC) 107 % of control | endpoint: mean survival time, dose: 109.0 mg/kg/injection, schedule: Q01DX001 (ip), vehicle: alkali diluted with saline 110 % of control and 112 % of control | endpoint: mean survival time, dose: 109.0 mg/kg/injection, schedule: Q## X001 (ip), vehicle: alkali diluted with saline 111 % of control | endpoint: mean survival time, dose: 112.0 mg/kg/injection, schedule: Q02DX010 (ip), vehicle: carboxymethylcellulose (CMC) 110 % of control | endpoint: mean survival time, dose: 120.0 mg/kg/injection, schedule: Q01DX009 (ip), vehicle: carboxymethylcellulose (CMC) 103 % of control | endpoint: mean survival time, dose: 128.0 mg/kg/injection, schedule: Q01DX001 (ip), vehicle: carboxymethylcellulose (CMC) 95 % of control | endpoint: mean survival time, dose: 129.2 mg/kg/injection, schedule: Q02DX010 (ip), vehicle: carboxymethylcellulose (CMC) 110 % of control | endpoint: mean survival time, dose: 146.0 mg/kg/injection, schedule: Q01DX001 (ip), vehicle: alkali diluted with saline 108 % of control and 112 % of control | endpoint: mean survival time, dose: 151.0 mg/kg/injection, schedule: Q01DX015 (ip), vehicle: other 105 % of control | endpoint: mean survival time, dose: 160.0 mg/kg/injection, schedule: Q01DX009 (ip), vehicle: saline with Tween-80 104 % of control | endpoint: mean survival time, dose: 160.0 mg/kg/injection, schedule: Q01DX Z (im), vehicle: other 102 % of control | endpoint: mean survival time, dose: 200.0 mg/kg/injection, schedule: Q01DX009 (ip), vehicle: Klucel (hydroxypropylcellulose) (HPC) 103 % of control | endpoint: mean survival time, dose: 200.0 mg/kg/injection, schedule: Q01DX009 (ip), vehicle: alkali diluted with saline 108 % of control | endpoint: mean survival time, dose: 200.0 mg/kg/injection, schedule: Q## X009 (ip), vehicle: alkali diluted with saline 108 % of control | endpoint: mean survival time, dose: 202.0 mg/kg/injection, schedule: Q01DX009 (ip), vehicle: alkali diluted with saline 95 % of control | endpoint: mean survival time, dose: 240.0 mg/kg/injection, schedule: Q01DX009 (ip), vehicle: alkali diluted with saline 96 % of control | endpoint: mean survival time, dose: 240.0 mg/kg/injection, schedule: Q03DX Z (ip), vehicle: other 101 % of control | endpoint: mean survival time, dose: 256.0 mg/kg/injection, schedule: Q01DX001 (ip), vehicle: carboxymethylcellulose (CMC) 98 % of control | endpoint: mean survival time, dose: 303.0 mg/kg/injection, schedule: Q04DX003 (ip), vehicle: saline with Tween-80 101 % of control | endpoint: mean survival time, dose: 400.0 mg/kg/injection, schedule: Q04DX003 (ip), vehicle: saline with Tween-80 101 % of control | endpoint: mean survival time, dose: 510.0 mg/kg/injection, schedule: Q04DX002 (ip), vehicle: alkali diluted with saline 96 % of control and 104 % of control | endpoint: mean survival time, dose: 1020.0 mg/kg/injection, schedule: Q07DX Z (ip), vehicle: other 93 % of control | endpoint: mean survival time, dose: 2675.0 micrograms/kg/injection, schedule: Q01DX Z (ip), vehicle: carboxymethylcellulose (CMC) 108 % of control | endpoint: median survival time, dose: 6.25 mg/kg/injection, schedule: Q01DX009 (ip), vehicle: other 105 % of control | endpoint: median survival time, dose: 25.0 mg/kg/injection, schedule: Q01DX009 (ip), vehicle: other 111 % of control | endpoint: median survival time, dose: 100.0 mg/kg/injection, schedule: Q01DX009 (ip), vehicle: other 111 % of control | endpoint: median survival time, dose: 160.0 mg/kg/injection, schedule: Q01DX009 (ip), vehicle: saline 100 % of control
